# Test results taken from ChEMBL document CHEMBL3526101, “Discovery and characterization of novel, potent, and selective cytochrome P450 2J2 inhibitors” (Drug Metab Dispos, 2013).
# T1: Cytochrome P450 2J2 (Homo sapiens, UniProt P51589)
# T1 sequence (P51589 whole entry): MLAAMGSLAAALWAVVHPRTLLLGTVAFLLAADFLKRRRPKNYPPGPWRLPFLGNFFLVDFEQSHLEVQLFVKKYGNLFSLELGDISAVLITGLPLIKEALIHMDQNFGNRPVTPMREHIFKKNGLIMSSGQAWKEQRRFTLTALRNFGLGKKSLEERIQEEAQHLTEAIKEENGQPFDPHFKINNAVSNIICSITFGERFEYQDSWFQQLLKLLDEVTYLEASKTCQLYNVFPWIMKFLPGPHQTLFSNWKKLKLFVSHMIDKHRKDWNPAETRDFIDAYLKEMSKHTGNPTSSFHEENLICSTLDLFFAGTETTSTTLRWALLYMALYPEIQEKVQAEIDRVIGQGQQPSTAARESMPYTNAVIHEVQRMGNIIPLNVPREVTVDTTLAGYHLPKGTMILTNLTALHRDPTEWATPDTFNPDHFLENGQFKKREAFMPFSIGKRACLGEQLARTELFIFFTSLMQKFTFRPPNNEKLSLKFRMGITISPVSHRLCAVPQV
# T2: Cytochrome P450 1A2 (Homo sapiens, UniProt P05177)
# T2 sequence (P05177 whole entry): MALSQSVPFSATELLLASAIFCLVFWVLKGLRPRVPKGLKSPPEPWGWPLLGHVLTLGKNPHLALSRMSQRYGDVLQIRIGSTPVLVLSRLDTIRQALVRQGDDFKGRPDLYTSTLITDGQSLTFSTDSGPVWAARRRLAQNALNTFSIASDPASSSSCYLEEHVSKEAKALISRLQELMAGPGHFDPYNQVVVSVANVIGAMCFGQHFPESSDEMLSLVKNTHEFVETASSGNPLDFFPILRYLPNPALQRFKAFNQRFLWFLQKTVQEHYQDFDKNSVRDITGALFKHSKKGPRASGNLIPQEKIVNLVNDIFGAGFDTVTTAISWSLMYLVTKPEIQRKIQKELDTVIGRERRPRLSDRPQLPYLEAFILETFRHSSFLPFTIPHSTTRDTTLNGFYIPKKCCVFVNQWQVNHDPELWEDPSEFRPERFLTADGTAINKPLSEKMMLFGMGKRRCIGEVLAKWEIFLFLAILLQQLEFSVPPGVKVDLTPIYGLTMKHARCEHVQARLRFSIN
# B1: Cytochrome P450 2J2 (Homo sapiens) (protein)
# chain: MLAAMGSLAAALWAVVHPRTLLLGTVAFLLAADFLKRRRPKNYPPGPWRLPFLGNFFLVDFEQSHLEVQLFVKKYGNLFSLELGDISAVLITGLPLIKEALIHMDQNFGNRPVTPMREHIFKKNGLIMSSGQAWKEQRRFTLTALRNFGLGKKSLEERIQEEAQHLTEAIKEENGQPFDPHFKINNAVSNIICSITFGERFEYQDSWFQQLLKLLDEVTYLEASKTCQLYNVFPWIMKFLPGPHQTLFSNWKKLKLFVSHMIDKHRKDWNPAETRDFIDAYLKEMSKHTGNPTSSFHEENLICSTLDLFFAGTETTSTTLRWALLYMALYPEIQEKVQAEIDRVIGQGQQPSTAARESMPYTNAVIHEVQRMGNIIPLNVPREVTVDTTLAGYHLPKGTMILTNLTALHRDPTEWATPDTFNPDHFLENGQFKKREAFMPFSIGKRACLGEQLARTELFIFFTSLMQKFTFRPPNNEKLSLKFRMGITISPVSHRLCAVPQV
# Legend:
# Cytochrome P450 2J2 [1] = target: T1, Cytochrome P450 2J2
# Cytochrome P450 2J2 [2] = target: T1, Cytochrome P450 2J2; assay: Drug metabolism assessed as human recombinant CYP2J2-mediated intrinsic clearance assessed per pmol protein after 30 mins; format: ADME; conditions: recombinant enzyme, 0.5 h
# Cytochrome P450 2C9 = Cytochrome P450 2C9 (Homo sapiens, UniProt P11712)
# Sequence of Cytochrome P450 2C9 (P11712 whole entry): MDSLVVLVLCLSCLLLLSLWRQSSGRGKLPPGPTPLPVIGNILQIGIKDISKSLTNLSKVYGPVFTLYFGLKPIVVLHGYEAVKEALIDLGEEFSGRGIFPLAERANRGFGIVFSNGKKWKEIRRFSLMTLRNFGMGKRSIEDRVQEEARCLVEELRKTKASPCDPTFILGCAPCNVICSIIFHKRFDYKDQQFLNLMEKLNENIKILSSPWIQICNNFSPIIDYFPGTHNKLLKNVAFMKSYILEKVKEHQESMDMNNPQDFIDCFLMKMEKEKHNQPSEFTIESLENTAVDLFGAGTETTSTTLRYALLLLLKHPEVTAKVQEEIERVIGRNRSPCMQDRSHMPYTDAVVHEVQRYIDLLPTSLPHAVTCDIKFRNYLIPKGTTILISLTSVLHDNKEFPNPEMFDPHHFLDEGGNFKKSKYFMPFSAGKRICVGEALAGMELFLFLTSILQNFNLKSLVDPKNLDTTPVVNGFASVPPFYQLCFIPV
# Cytochrome P450 1A2 = target: T2, Cytochrome P450 1A2
# Cytochrome P450 2D6 = Cytochrome P450 2D6 (Homo sapiens, UniProt P10635)
# Sequence of Cytochrome P450 2D6 (P10635 whole entry): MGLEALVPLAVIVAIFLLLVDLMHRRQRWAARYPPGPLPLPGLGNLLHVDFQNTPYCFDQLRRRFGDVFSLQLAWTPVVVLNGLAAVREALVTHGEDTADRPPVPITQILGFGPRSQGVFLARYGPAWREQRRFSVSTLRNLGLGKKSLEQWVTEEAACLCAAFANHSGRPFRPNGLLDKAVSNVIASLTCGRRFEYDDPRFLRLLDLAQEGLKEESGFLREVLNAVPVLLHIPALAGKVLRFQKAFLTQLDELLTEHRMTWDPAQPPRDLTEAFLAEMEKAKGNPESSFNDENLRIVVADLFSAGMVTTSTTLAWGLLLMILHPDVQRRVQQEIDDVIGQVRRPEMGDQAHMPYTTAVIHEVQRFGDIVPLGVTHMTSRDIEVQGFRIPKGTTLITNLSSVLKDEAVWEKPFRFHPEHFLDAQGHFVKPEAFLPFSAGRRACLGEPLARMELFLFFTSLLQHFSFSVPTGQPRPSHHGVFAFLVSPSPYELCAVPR
# Cytochrome P450 3A4 = Cytochrome P450 3A4 (Homo sapiens, UniProt P08684)
# Sequence of Cytochrome P450 3A4 (P08684 whole entry): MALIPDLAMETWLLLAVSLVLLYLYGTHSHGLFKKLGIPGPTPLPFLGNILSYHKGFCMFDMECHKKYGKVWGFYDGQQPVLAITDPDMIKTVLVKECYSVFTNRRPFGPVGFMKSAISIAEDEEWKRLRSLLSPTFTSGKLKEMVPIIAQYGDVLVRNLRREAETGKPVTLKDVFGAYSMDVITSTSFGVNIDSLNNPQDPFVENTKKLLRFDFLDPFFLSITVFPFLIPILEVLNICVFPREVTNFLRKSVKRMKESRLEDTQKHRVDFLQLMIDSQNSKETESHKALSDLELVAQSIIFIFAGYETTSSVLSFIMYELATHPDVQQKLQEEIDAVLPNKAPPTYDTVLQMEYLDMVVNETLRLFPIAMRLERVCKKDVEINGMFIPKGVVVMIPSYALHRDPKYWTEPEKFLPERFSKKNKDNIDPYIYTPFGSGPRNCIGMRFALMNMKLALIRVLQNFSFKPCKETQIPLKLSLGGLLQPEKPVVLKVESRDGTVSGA
# Description: Inhibition of CYP3A4 in human liver microsomes using testosterone substrate by LC-MS/MS method
# Cytochrome P450 2C19 = Cytochrome P450 2C19 (Homo sapiens, UniProt P33261)
# Sequence of Cytochrome P450 2C19 (P33261 whole entry): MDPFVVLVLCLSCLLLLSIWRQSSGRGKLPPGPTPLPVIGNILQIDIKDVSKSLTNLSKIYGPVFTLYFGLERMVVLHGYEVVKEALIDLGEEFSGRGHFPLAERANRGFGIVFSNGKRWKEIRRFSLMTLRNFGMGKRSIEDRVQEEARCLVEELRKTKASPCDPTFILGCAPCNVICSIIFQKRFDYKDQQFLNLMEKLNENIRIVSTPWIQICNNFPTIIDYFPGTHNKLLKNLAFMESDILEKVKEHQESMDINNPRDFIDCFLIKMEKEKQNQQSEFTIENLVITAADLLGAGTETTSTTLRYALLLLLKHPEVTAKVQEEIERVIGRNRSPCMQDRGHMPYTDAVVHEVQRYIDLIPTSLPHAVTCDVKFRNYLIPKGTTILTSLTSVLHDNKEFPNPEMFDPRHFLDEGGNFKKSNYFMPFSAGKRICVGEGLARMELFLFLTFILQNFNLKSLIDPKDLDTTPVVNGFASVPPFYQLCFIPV
# [3] = Metabolic stability in human liver microsomes at 1 uM after 30 mins by LC-MS/MS method; format: ADME; conditions: read-out: Stability
# [4] = Tmax in human; format: ADME, organism-based; conditions: in vivo
# [5] = substrate: COc1ccc(CCN2CCC(Nc3nc4ccccc4n3Cc3ccc(F)cc3)CC2)cc1; assay: Activity of human recombinant CYP2J2 assessed as compound O-demethylation; format: ADME
Molecule,IC50 (Cytochrome P450 2J2 [1]) [µM],IC50 (Cytochrome P450 1A2) [µM],also measured
C[C@]12C=CC(=O)C=C1CC[C@@H]1[C@@H]2[C@@H](O)C[C@@]2(C)[C@H]1CC[C@]2(O)C(=O)CO [PREDNISOLONE],> 50,–,–
Cc1cccc(Nc2ccccc2C(=O)O)c1C [MEFENAMIC ACID],> 50,–,–
CN(C)CCCN1c2ccccc2CCc2ccccc21 [IMIPRAMINE],> 50,–,–
C[C@@H]1C[C@H]2[C@@H]3CCC4=CC(=O)C=C[C@]4(C)[C@@]3(F)[C@@H](O)C[C@]2(C)[C@@]1(O)C(=O)CO [DEXAMETHASONE],> 50,–,–
NC(=O)N1c2ccccc2C=Cc2ccccc21 [CARBAMAZEPINE],> 50,–,–
COc1ccc(CCN2CCC(Nc3nc4ccccc4n3Cc3ccc(F)cc3)CC2)cc1 [ASTEMIZOLE],–,–,CL (Cytochrome P450 2J2 [2]): 3.05 µL/min
CC(=O)Nc1ccc(O)cc1 [ACETAMINOPHEN],> 50,–,–
COc1ccc2c(c1)[C@]13CCCC[C@@H]1[C@H](C2)N(C)CC3 [DEXTROMETHORPHAN],> 50,–,–
C[C@]12C=CC(=O)C=C1CC[C@H]1[C@@H]3C[C@@H](O)[C@](O)(C(=O)CO)[C@@]3(C)C[C@H](O)[C@@]12F [TRIAMCINOLONE],9.47,> 50,IC50 (Cytochrome P450 2C9): > 50 µM; IC50 (Cytochrome P450 2D6): > 50 µM
CN1C(C(=O)Nc2ccccn2)=C(O)c2ccccc2S1(=O)=O [PIROXICAM],> 50,–,–
CC[C@H]1OC(=O)[C@H](C)[C@@H](O[C@H]2C[C@@](C)(OC)[C@@H](O)[C@H](C)O2)[C@H](C)[C@@H](O[C@@H]2O[C@H](C)C[C@H](N(C)C)[C@H]2O)[C@](C)(O)C[C@@H](C)C(=O)[C@H](C)[C@@H](O)[C@]1(C)O [ERYTHROMYCIN],> 50,–,–
CCN(CC)Cc1cc(Nc2ccnc3cc(Cl)ccc23)ccc1O [AMODIAQUINE],–,–,IC50 (Cytochrome P450 3A4): > 50 µM
CC1(C)S[C@@H]2[C@H](NC(=O)[C@H](N)c3ccc(O)cc3)C(=O)N2[C@H]1C(=O)O [AMOXICILLIN],> 50,–,–
COc1ccc(CCN(C)CCCC(C#N)(c2ccc(OC)c(OC)c2)C(C)C)cc1OC (stereo unspecified),–,> 50,–
CN1CCC[C@@H]1Cc1c[nH]c2ccc(CCS(=O)(=O)c3ccccc3)cc12,> 50,–,–
C=CCc1ccccc1OCC(O)CNC(C)C (stereo unspecified) [ALPRENOLOL],> 50,–,–
CN[C@H]1CC[C@@H](c2ccc(Cl)c(Cl)c2)c2ccccc21 [SERTRALINE],18.5,29.7,IC50 (Cytochrome P450 2C19): 22.5 µM; IC50 (Cytochrome P450 2C9): > 50 µM; IC50 (Cytochrome P450 2D6): 2.88 µM
COCC(=O)O[C@]1(CCN(C)CCCc2nc3ccccc3[nH]2)CCc2cc(F)ccc2[C@@H]1C(C)C [MIBEFRADIL],2.14,> 50,IC50 (Cytochrome P450 2C19): 1.32 µM; IC50 (Cytochrome P450 2C9): 28.4 µM; IC50 (Cytochrome P450 2D6): 0.84 µM
COCCc1ccc(OCC(O)CNC(C)C)cc1 (stereo unspecified) [METOPROLOL],–,> 50,IC50 (Cytochrome P450 3A4): > 50 µM
CCCc1nc2c(C)cc(-c3nc4ccccc4n3C)cc2n1Cc1ccc(-c2ccccc2C(=O)O)cc1,–,> 50,"IC50 (Cytochrome P450 2C19): > 50 µM; IC50 (Cytochrome P450 2C9): 4.78 µM; remaining at 0.5 h, 1 µM [3]: 97.7%; IC50 (Cytochrome P450 2D6): > 50 µM"
CC(C)COCC(CN(Cc1ccccc1)c1ccccc1)N1CCCC1 (stereo unspecified) [BEPRIDIL],11.5,> 50,IC50 (Cytochrome P450 2D6): > 50 µM
CCn1cc(C(=O)O)c(=O)c2cc(F)c(N3CCNCC3)cc21 [NORFLOXACIN],–,> 50,IC50 (Cytochrome P450 2C9): > 50 µM
Nc1ccc(S(=O)(=O)Nc2ccnn2-c2ccccc2)cc1 [SULFAPHENAZOLE],> 50,–,–
CO/N=C(\C(=O)N[C@@H]1C(=O)N2C(C(=O)O)=C(CSc3nc(=O)c(=O)[nH]n3C)CS[C@H]12)c1csc(N)n1 [CEFTRIAXONE],27.4,–,–
COc1ccc2[nH]c([S+]([O-])Cc3ncc(C)c(OC)c3C)nc2c1 (stereo unspecified) [OMEPRAZOLE],> 50,–,–
Cc1c(OCC(F)(F)F)ccnc1C[S+]([O-])c1nc2ccccc2[nH]1 (stereo unspecified) [LANSOPRAZOLE],> 50,–,–
CCCc1nc(C(C)(C)O)c(C(=O)O)n1Cc1ccc(-c2ccccc2-c2nnn[nH]2)cc1 [OLMESARTAN],> 50,–,–
CCc1oc2ccccc2c1C(=O)c1cc(Br)c(O)c(Br)c1 [BENZBROMARONE],4.26,33.1,IC50 (Cytochrome P450 2D6): > 50 µM
Fc1ccc(C(c2ccc(F)cc2)N2CCN(C/C=C/c3ccccc3)CC2)cc1 [FLUNARIZINE],–,> 50,"IC50 (Cytochrome P450 2C19): > 50 µM; IC50 (Cytochrome P450 2C9): > 50 µM; remaining at 0.5 h, 1 µM [3]: 83.8%; Tmax [4]: 4 h"
B1,–,–,Km [5]: 0.09 µM; Vmax [5]: 0.000339 µmol/min
